Consider 25 compounds from patent US6548494B1, “Tricyclic inhibitors of poly(ADP-ribose) polymerases” (Agouron Pharmaceuticals, Inc., priority 1999, dated 2003).

Each structure is given as a SMILES string. Where “and” joins values, the source holds several entries; their conditions need not be identical. Identical values can stand only once. Where only a bound is given, the exact number is not on record here.

One data set has as its target purified PARP protein (Homo sapiens, UniProt P09874). As to the kind of experiment: PARP enzyme inhibition assay. The format is biochemical. The following applies: 20 nM purified PARP (5 nM for tight-binding inhibitors), 500 μM NAD+, 25° C.; several values in one cell = repeat determinations; read-out: Inhibition Constant Ki.
The subject of the next data set is A549 cells. Kind of data set: Cytotoxicity potentiation assay. To be noted: test compound 0.4 μM, ratio of IC50 of topotecan alone to IC50 of topotecan with test compound. The format is cell-based. The procedure:
A549 cells (ATCC, Rockville, Md.) were seeded into 96-well cell culture plates (Falcon brand, Fisher Scientific, Pittsburgh, Pa.) 16 to 24 hours before experimental manipulation. Cells were then treated with a test compound (or a combination of test compounds where indicated) each at a concentration of 0.4 μM for either 3 days or 5 days. At the end of treatments, relative cell number was determined either by MTT assay or SRB assay. For the MTT assay, 0.2 μg/μl of MTT (3-(4,5-dimethylthiazol-2-yl)-2,5-diphenyltetrazolium bromide) (Sigma Chemical Co., St. Louis, Mo.) was added to each well of a plate, and the plate was incubated in a cell-culture incubator for 4 hours. Metabolized MTT in each well was solubilized in 150 μl of DMSO (Sigma Chemical Co.) with shaking and quantified with a Wallac 1420 Victor plate reader (EG&G Wallac, Gaithersburg, Md.) at 540 nm. For the SRB assay, cells were fixed with 10% trichloroacetic acid (Sigma Chemical Co) for an hour at 4° C. After extensively washing, fixed cells were stained for 30 minutes with 0.4% sulforhodamine B (SRB, Sigma Chemical Co.) in 1% acetic acid (Sigma Chemical Co). Unbound SRB was washed away with 1% acetic acid. Then the cultures were air-dried, and dye was solubilized with 10 mM unbuffered Tris base (Sigma Chemical Co) with shaking. The bound dye was measured photometrically with the Wallac Victor plate reader at 515 nm. The ratio of the OD (optical density) value of a compound-treated culture to the OD value of a mock-treated culture, expressed in percentage, was used to quantify the cytotoxicity of a compound. […] To quantify the potentiation of the cytotoxicity of topotecan or temozolomide by test compounds, a dimensionless parameter PF50 is used and is defined as the ratio of the IC50 of topotecan or temozolomide alone to the IC50 of topotecan or temozolomide in combination with a test compound. For the compounds of the invention, PF50 values were determined by testing with topotecan.

Chain of purified PARP protein (P09874 whole entry): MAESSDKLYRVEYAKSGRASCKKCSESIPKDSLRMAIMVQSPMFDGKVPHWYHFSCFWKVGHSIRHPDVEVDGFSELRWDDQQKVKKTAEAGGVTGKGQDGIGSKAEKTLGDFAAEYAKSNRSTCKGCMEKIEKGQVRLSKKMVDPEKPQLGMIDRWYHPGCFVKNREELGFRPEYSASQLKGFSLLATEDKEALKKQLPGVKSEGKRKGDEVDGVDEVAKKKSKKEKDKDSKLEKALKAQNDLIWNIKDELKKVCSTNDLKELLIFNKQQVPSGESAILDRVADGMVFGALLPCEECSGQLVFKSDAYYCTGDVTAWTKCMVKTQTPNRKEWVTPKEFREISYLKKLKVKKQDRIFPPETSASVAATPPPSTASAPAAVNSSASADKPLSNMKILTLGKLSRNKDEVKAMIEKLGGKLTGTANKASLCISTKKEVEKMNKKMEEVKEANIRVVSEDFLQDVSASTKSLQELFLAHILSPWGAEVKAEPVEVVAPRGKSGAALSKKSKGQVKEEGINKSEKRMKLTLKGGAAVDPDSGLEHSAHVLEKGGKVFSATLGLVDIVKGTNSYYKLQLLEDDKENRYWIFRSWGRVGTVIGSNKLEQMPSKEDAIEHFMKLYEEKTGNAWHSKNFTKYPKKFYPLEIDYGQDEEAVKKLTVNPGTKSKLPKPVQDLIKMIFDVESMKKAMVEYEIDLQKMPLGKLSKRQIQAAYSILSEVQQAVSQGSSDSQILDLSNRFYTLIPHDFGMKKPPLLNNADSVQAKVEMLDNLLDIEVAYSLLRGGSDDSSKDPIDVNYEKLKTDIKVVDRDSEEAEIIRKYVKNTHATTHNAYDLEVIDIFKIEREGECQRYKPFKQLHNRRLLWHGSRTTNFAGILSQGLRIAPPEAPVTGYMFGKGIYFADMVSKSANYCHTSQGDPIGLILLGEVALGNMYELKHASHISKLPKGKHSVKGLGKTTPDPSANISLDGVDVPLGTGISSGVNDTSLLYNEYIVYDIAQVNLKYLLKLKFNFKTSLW

`O=C1NCCn2c(-c3ccccc3Cl)nc3cccc1c32` [Example 5, 1-(2-Chloro-phenyl)-8,9-dihydro-7H-2,7,9a-triaza-benzo[cd]azulen-6-one] registered a melting point of 253 to 255 °C. The Ki at purified PARP protein came to 7.7 nM. The “Cytotoxicity Potentiation PF50” value with A549 cells is recorded as 1.3.
The corresponding values for `O=C1NCCn2c(-c3cccc(Oc4ccccc4)c3)nc3cccc1c32` [Example 6, 1-(3-Phenoxy-phenyl)-8,9-dihydro-7H-2,7,9a-triaza-benzo[cd]azulen-6-one] are 216 to 219 °C, 4.3 nM and 2.
The corresponding values for `O=C1NCCn2c(-c3cccs3)nc3cccc1c32` [Example 8, 1-Thiophen-2-yl-8,9-dihydro-7H-2,7,9a-triaza-benzo[cd]azulen-6-one] are 247 to 250 °C, 6.2 nM and 1.9.
`O=C1NCCn2c(-c3cccc(C(F)(F)F)c3)nc3cccc1c32` [Example 10, 1-(3-Trifluoromethyl-phenyl)-8,9-dihydro-7H-2,7,9a-triaza-benzo[cd]azulen-6-one]: the melting point is 250 to 252 °C. Moreover, the Ki at purified PARP protein amounted to 11.2 nM. For the same compound, in the data set on A549 cells, the “Cytotoxicity Potentiation PF50” value amounted to 1.7.
Regarding `O=C1NCCn2c(-c3ccccn3)nc3cccc1c32` [Example 12, 1-Pyridin-2-yl-8,9-dihydro-7H-2,7,9a-triaza-benzo[cd]azulen-6-one], the melting point was in the range of 249 to 250 °C. On purified PARP protein, the Ki was 21 nM and 17 nM. Also, the “Cytotoxicity Potentiation PF50” value in the data set with A549 cells is 1.3.
Consider `O=C1NCCn2c(-c3ccc(Cl)cc3)nc3cccc1c32` [Example 14, 1-(4-Chloro-phenyl)-8,9-dihydro-7H-2,7,9a-triaza-benzo[cd]azulen-6-one], for which the melting point lay within 272 to 274 °C. In addition, the Ki on purified PARP protein is 5.7 nM and 7.6 nM. For the same compound, the “Cytotoxicity Potentiation PF50” value in the data set on A549 cells came to 1.8.
`O=C1NCCn2c(-c3cccc(Oc4ccncc4)c3)nc3cccc1c32` [Example 17, 1-[3-(Pyridin-4-yloxy)-phenyl]-8,9-dihydro-7H-2,7,9a-triaza-benzo[cd]azulen-6-one] registered a melting point of 245 to 247 °C. On purified PARP protein, the Ki is 4.8 nM and 5.3 nM. Moreover, the “Cytotoxicity Potentiation PF50” value in the data set on A549 cells is 1.7.
`O=C1NCCn2c(-c3ccc(F)cc3)nc3cc(F)cc1c32` [Example 18, 4-Fluoro-1-(4-fluoro-phenyl)-8,9-dihydro-7H-2,7,9a-triaza-benzo[cd]azulen-6-one]: the melting point lay within 284 to 287 °C. In addition, on purified PARP protein, the Ki is 3.4 nM. Besides, the “Cytotoxicity Potentiation PF50” value with A549 cells was 2.
In the same order, the values of `CN(C)Cc1cccc(-c2nc3cccc4c3n2CCNC4=O)c1` [Example 32, 1-(3-Dimethylaminomethyl-phenyl)-8,9-dihydro-7H-2,7,9a-triaza-benzo[cd]azulen-6-one] are 192 to 194 °C (dec.), 6.3 nM and 1.8.
Regarding `O=C1NCCn2c(-c3ccc(Cl)cc3)cc3cccc1c32` [Example 34, 6-(4-Chlorophenyl)-3,4-dihydro-2H-[1,4]diazepino[6,7,1-hi]indol-1-one], the melting point was in the range of 178 to 180 °C. For the same compound, the Ki at purified PARP protein worked out at 11 nM. For the same compound, the “Cytotoxicity Potentiation PF50” value in the data set with A549 cells was 1.8.
Turning to `CNCc1cccc(-c2nc3cccc4c3n2CCNC4=O)c1` [Example 59, 1-(3-Methylaminomethyl-phenyl)-8,9-dihydro-7H-2,7,9a-triaza-benzo[cd]azulen-6-one], the melting point is 110 °C (dec.). Moreover, the Ki on purified PARP protein worked out at 4.2 nM. For the same compound, the “Cytotoxicity Potentiation PF50” value with A549 cells is given as 1.8.
`CNCc1ccc(-c2nc3cccc4c3n2CCNC4=O)cc1` [Example 75, 1-(4-Methylaminomethyl-phenyl)-8,9-dihydro-7H-2,7,9a-triaza-benzo[cd]azulen-6-one] came in with a melting point of 169 to 172 °C. Further, the Ki on purified PARP protein amounted to 1.9 nM. Also, the “Cytotoxicity Potentiation PF50” value in the data set with A549 cells came out at 1.8.
In the same order, the values of `O=C1NCCn2c(-c3ccc(CN4CCOCC4)cc3)nc3cccc1c32` [Example 76, 1-(4-Morpholin-4-ylmethyl-phenyl)-8,9-dihydro-7H-2,7,9a-triaza-benzo[cd]azulen-6-one] are 285 to 286 °C (dec.), 5.1 nM and 1.6.
In the same order, the values of `COCCNCc1ccc(-c2nc3cccc4c3n2CCNC4=O)cc1` [Example 77, 1-(4-[(2-Methoxyethylamino)methyl]-phenyl)-8,9-dihydro-7H-2,7,9a-triaza-benzo[cd]azulen-6-one] are 154 to 157 °C, 6.9 nM and 1.7.
In the same order, the values of `CN(C)Cc1cccc(-c2cc3cccc4c3n2CCNC4=O)c1` [Example 86, 6-(3-Dimethylaminomethyl-phenyl)-3,4-dihydro-2H-[1,4]diazepino[6,7,1-hi]indol-1-one] are 98 to 100 °C, 9.1 nM and 1.6.
For the compound `CNCc1ccc(-c2nc3cc(F)cc4c3n2CCNC4=O)cc1` [Example 98, 4-Fluoro-1-(4-methylaminomethyl-phenyl)-8,9-dihydro-7H-2,7,9a-triaza-benzo[cd]azulen-6-one], the melting point is 204 to 208 °C (dec.). The Ki on purified PARP protein was found to be 3.3 nM. In addition, the “Cytotoxicity Potentiation PF50” value in the data set with A549 cells worked out at 2.1.
The corresponding values for `CN(C)Cc1ccc(-c2nc3cc(F)cc4c3n2CCNC4=O)cc1` [Example 99, 4-Fluoro-1-(4-dimethylaminomethyl-phenyl)-8,9-dihydro-7H-2,7,9a-triaza-benzo[cd]azulen-6-one] are 240 °C (dec.), 1.7 nM and 2.0.
Regarding `O=C1NCCn2c(-c3ccc(CNC4CC4)cc3)nc3cccc1c32` [Example 101, 1-(4-Cyclopropylaminomethyl-phenyl)-8,9-dihydro-7H-2,7,9a-triaza-benzo[cd]azulen-6-one], the melting point was 84 °C (dec.). Moreover, the Ki on purified PARP protein amounted to 2.3 nM. Further, in the data set with A549 cells, the “Cytotoxicity Potentiation PF50” value is reported as 2.1.
With `O=C1NCCn2c(-c3ccc(-n4ccnc4)cc3)nc3cccc1c32` [Example 119, 1-(4-Imidazol-1-yl-phenyl)-8,9-dihydro-7H-2,7,9a-triaza-benzo[cd]azulen-6-one], the melting point is > 300 °C (dec.). The Ki on purified PARP protein is 3.2 nM and 4.2 nM. For the same compound, the “Cytotoxicity Potentiation PF50” value in the data set on A549 cells came to 2.2.
Compound `O=C1NCCn2c(-c3ccc(-c4ccccn4)cc3)nc3cccc1c32` [Example 126, 1-(4-Pyridin-2-yl-phenyl)-8,9-dihydro-7H-2,7,9a-triaza-benzo[cd]azulen-6-one] had a melting point of 277 to 279 °C. Besides, the Ki at purified PARP protein stood at 4.1 nM. In addition, the “Cytotoxicity Potentiation PF50” value in the data set with A549 cells was found to be 2.2.
As to `O=C1NCCn2c(-c3ccc(CCN4CCCC4)cc3)nc3cccc1c32` [Example 128, 1-[4-(2-Pyrrolidin-1-yl-ethyl)-phenyl]-8,9-dihydro-7H-2,7,9a-triaza-benzo[cd]azulen-6-one], the melting point was > 201 °C (dec.). Moreover, the Ki on purified PARP protein is 4 nM and 5.4 nM. The “Cytotoxicity Potentiation PF50” value with A549 cells is on record as 1.8.
With `CN(C)CCc1ccc(-c2nc3cccc4c3n2CCNC4=O)cc1` [Example 129, 1-[4-(2-Dimethylamino-ethyl)-phenyl]-8,9-dihydro-7H-2,7,9a-triaza-benzo[cd]azulen-6-one], the melting point was > 98 °C (dec.). For the same compound, the Ki at purified PARP protein came to 5 nM. Moreover, the “Cytotoxicity Potentiation PF50” value in the data set with A549 cells stood at 1.9.
`O=C1NCCn2c(-c3ccc(C4CCCCN4)cc3)nc3cccc1c32` (stereo not drawn) [Example 130, 1-(4-Piperidin-2-yl-phenyl)-8,9-dihydro-7H-2,7,9a-triaza-benzo[cd]azulen-6-one] showed a melting point of 263 to 265 °C. Besides, the Ki at purified PARP protein was 4.4 nM and 5.6 nM. In addition, the “Cytotoxicity Potentiation PF50” value with A549 cells turned out to be 3.4.
With `CN1CCCCC1c1ccc(-c2nc3cccc4c3n2CCNC4=O)cc1` (stereo not drawn) [Example 132, 1-[4-(1-Methyl-piperidin-2-yl)-phenyl]-8,9-dihydro-7H-2,7,9a-triaza-benzo[cd]azulen-6-one], the melting point was > 180 °C (dec.). For the same compound, at purified PARP protein, the Ki stood at 6.8 nM. Also, in the data set with A549 cells, the “Cytotoxicity Potentiation PF50” value is 2.4.
In turn, `O=C1NCCn2c(-c3ccc(-c4cccnc4)cc3)nc3cccc1c32` [Example 134, 1-(4-Pyridin-3-yl-phenyl)-8,9-dihydro-7H-2,7,9a-triaza-benzo[cd]azulen-6-one] registered a melting point of 284 to 286 °C. Besides, the Ki on purified PARP protein worked out at 2.8 nM. Besides, in the data set with A549 cells, the “Cytotoxicity Potentiation PF50” value is on record as 2.5.
